Values after ≈ are worked out from the molar mass of the structure shown. Where two headings read alike, the source gives them in different places. Where only a bound is given, the exact number is not on record here.

In assay [1] the test system is S. marcescens ATCC 13880. The assay is described as follows: Antibacterial activity: MIC/MBC, MIC with PAβN, disc-diffusion. The format is cell-based, Serratia marcescens. The conditions noted are these: Serratia marcescens, ATCC13880. The method, boiled down:
(§1)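 Strains were subcultured twice on TSA at 30 °C. They were then tested by disc diffusion (EUCAST/CLSI), by CLSI broth-microdilution MIC in Mueller–Hinton II broth and by CLSI MBC, with compounds in DMSO.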

In assay [2] the test system is S. cerevisiae ATCC 9763. The assay is described as follows: Antifungal activity: MIC/MFC, disc-diffusion. The format is cell-based, Saccharomyces cerevisiae. The essentials:
(§2)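 Disc-diffusion and broth MIC assays followed EUCAST and CLSI recommendations; MBC/MFC were determined per CLSI. Strains were subcultured twice before testing (bacteria on tryptic soy agar, yeasts on Sabouraud dextrose agar, 24–48 h, 30 °C). Compounds were dissolved in DMSO.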
A general note: Agar diffusion results depend on both activity and mobility in agar.

In assay [3] the test system is C. guilliermondii IBA 155. In words: Antifungal activity: MIC/MFC, disc-diffusion. The format is cell-based. The conditions noted are these: Meyerozyma guilliermondii, IBA155. The method, boiled down: as §2
Assay [4] relates to C. tropicalis ATCC 750. In words: Antifungal activity: MIC/MFC, disc-diffusion. Particulars: Candida tropicalis, ATCC750. It is filed as cell-based. The essentials: as §2
For assay [5], the system named is C. parapsilosis ATCC 22019. In words: Antifungal activity: MIC/MFC, disc-diffusion. It is filed as cell-based. Particulars: Lodderomyces parapsilosis, ATCC22019. The method, boiled down:
as §2

The subject of assay [6] is K. pneumoniae ATCC 13883. The assay is described as follows: Antibacterial activity: MIC/MBC, MIC with PAβN, disc-diffusion. Particulars: Klebsiella pneumoniae, ATCC13883. The format is cell-based, Klebsiella pneumoniae. The essentials: as §1
The subject of assay [7] is S. epidermidis ATCC 12228. The assay is described as follows: Antibacterial activity: MIC/MBC determination and disc-diffusion. The format is cell-based. The conditions noted are these: Staphylococcus epidermidis, ATCC12228. The essentials:
as §2

For assay [8], the system named is E. faecium ATCC 6057. Described as above. The conditions noted are these: Enterococcus faecium, ATCC6057. The format is cell-based. The essentials: as §2
Assay [9] has as its system E. faecalis ATCC 29212. Described as above. It is filed as cell-based. The conditions noted are these: Enterococcus faecalis, ATCC29212. The method, boiled down:
as §2

The subject of assay [10] is S. aureus ATCC 43300 MRSA. The description is as above. It is filed as cell-based. Particulars: Staphylococcus aureus. The essentials:
as §2

The mark [11] stands for this setting: S. marcescens ATCC 13880, read-out: MIC.
Setting [12] is: Saccharomyces cerevisiae, ATCC9763, read-out: MIC.
Where [13] appears, read: K. pneumoniae ATCC 13883, read-out: MIC.
Setting [14] is: S. epidermidis ATCC 12228, read-out: MIC.
[15] abbreviates: E. faecium ATCC 6057, read-out: MIC.
Setting [16] is: E. faecalis ATCC 29212, read-out: MIC.
Setting [17] is: S. aureus ATCC 43300 MRSA, read-out: MBC (first MBC where Eagle effect).
Where [18] appears, read: S. aureus ATCC 43300 MRSA, read-out: MIC.

In general, MIC refers to the smallest concentration in the dilution series that meets the test's criterion for growth inhibition. One may read the MFC as the smallest concentration meeting the test's criterion for killing the fungus. The low end stands for greater fungicidal potency, the high end for weaker fungicidal potency. The term MBC denotes the smallest concentration meeting the test's criterion for killing. With `C[Si]1(C)OB(O)c2ccc(SCC(=O)c3ccccc3)c(F)c21` [Compound 23, 2-((7-Fluoro-3-hydroxy-1,1-dimethyl-1,3-dihydrobenzo[c][1,2,5]oxasilaborol-6-yl)thio)-1-phenylethan-1-one], the MIC in assay [1] (setting [11]) was > 400 µg/mL; in assay [2] (setting [12]), 25 µg/mL (≈ 72.2 µM); in assay [3] (read-out: MIC), > 400 µg/mL; in [4] (read-out: MIC) it was 400 µg/mL (≈ 1160 µM); in assay [5] (read-out: MIC), 400 µg/mL (≈ 1160 µM); in assay [6] (setting [13]) it was > 400 µg/mL. In addition, the MIC in [7] (setting [14]) worked out at 12.5 µg/mL (≈ 36.1 µM); in assay [8] (setting [15]), 50 µg/mL (≈ 144 µM); in assay [9] (setting [16]) it was 50 µg/mL (≈ 144 µM); in assay [10] (setting [18]), 3.12 µg/mL (≈ 9.01 µM). Moreover, in assay [2] (S. cerevisiae ATCC 9763, (-) = zone not observed, paper discs 9 mm), the “diameter of inhibition zone” value came to 24 mm. In [2] (Saccharomyces cerevisiae, ATCC9763, S. cerevisiae ATCC 9763), this compound yielded an MFC of 200 µg/mL (≈ 578 µM). The minimum bactericidal concentration (MBC) in [7] (S. epidermidis ATCC 12228) was 50 µg/mL (≈ 144 µM); in [9] (E. faecalis ATCC 29212), 200 µg/mL (≈ 578 µM); in [10] (setting [17]), 25 µg/mL (≈ 72.2 µM); in assay [10] (S. aureus ATCC 43300 MRSA, value after the slash, read-out: second MBC (Eagle effect)) it was 100 µg/mL (≈ 289 µM).
With `CCOP(=O)(OCC)Sc1c(F)cc2c(c1F)[Si](C)(C)OB2O` [Compound 24, S-(5,7-Difluoro-3-hydroxy-1,1-dimethyl-1,3-dihydrobenzo[c][1,2,5]oxasilaborol-6-yl) O,O-diethyl phosphorothioate], the minimum inhibitory concentration (MIC) in assay [1] is > 400 µg/mL; in [2] (Saccharomyces cerevisiae, ATCC9763), > 400 µg/mL; in assay [3], > 400 µg/mL; in assay [4], > 400 µg/mL; in assay [5], > 400 µg/mL; in assay [6] it was > 400 µg/mL. Also, the MIC in assay [7] is 100 µg/mL (≈ 262 µM); in assay [8], 400 µg/mL (≈ 1050 µM); in assay [9], > 400 µg/mL; in [10] it was 12.5 µg/mL (≈ 32.7 µM). In [10] (read-out: MBC (first MBC where Eagle effect)), the MBC was > 400 µg/mL.
For the compound `C[Si]1(C)OB(O)c2ccc(SC(=O)c3ccc(C(F)(F)F)cc3)c(F)c21` [Compound 25, S-(7-Fluoro-3-hydroxy-1,1-dimethyl-1,3-dihydrobenzo[c][1,2,5]oxasilaborol-6-yl) 4-(trifluoromethyl)benzothioate], the MIC in [1] (setting [11]) was > 50 µg/mL; in assay [2] (setting [12]), 25 µg/mL (≈ 62.5 µM); in assay [3] (read-out: MIC), 50 µg/mL (≈ 125 µM); in [4] (read-out: MIC) it was > 50 µg/mL; in assay [5] (read-out: MIC) it was > 50 µg/mL; in assay [6] (setting [13]) it was > 50 µg/mL. The MIC was found to be 3.12 µg/mL (≈ 7.8 µM) in assay [7] (setting [14]), 12.5 µg/mL (≈ 31.2 µM) in assay [8] (setting [15]), 12.5 µg/mL (≈ 31.2 µM) in assay [9] (setting [16]) and 12.5 µg/mL (≈ 31.2 µM) in [10] (setting [18]). Besides, the minimal bactericidal concentration (MBC) in [7] (S. epidermidis ATCC 12228) was 25 µg/mL (≈ 62.5 µM); in assay [8] (E. faecium ATCC 6057) it was > 50 µg/mL; in [9] (E. faecalis ATCC 29212), 25 µg/mL (≈ 62.5 µM); in [10] (setting [17]) it was 25 µg/mL (≈ 62.5 µM).
For the compound `C[Si]1(C)OB(O)c2cc(F)c(S(=O)(=O)Cl)c(F)c21` [Compound 26, 5,7-Difluoro-3-hydroxy-1,1-dimethyl-1,3-dihydrobenzo[c][1,2,5]oxasilaborole-6-sulfonyl chloride], the MIC in [1] (setting [11]), in assay [2] (setting [12]), in assay [3] (read-out: MIC), in assay [4] (read-out: MIC), in assay [5] (read-out: MIC) and in [6] (setting [13]) was > 400 µg/mL each time. Moreover, the MIC was determined as 200 µg/mL in assay [7] (setting [14]), 100 µg/mL in [8] (setting [15]), 200 µg/mL in assay [9] (setting [16]) and 200 µg/mL in [10] (setting [18]).
In the case of `C[Si]1(C)OB(O)c2cc(F)c(S(N)(=O)=O)c(F)c21` [Compound 27, 5,7-Difluoro-3-hydroxy-1,1-dimethyl-1,3-dihydrobenzo[c][1,2,5]oxasilaborole-6-sulfonamide], the minimal inhibitory concentration (MIC) in [1] (setting [11]), in [2] (setting [12]), in [3] (read-out: MIC), in assay [4] (read-out: MIC), in assay [5] (read-out: MIC) and in [6] (setting [13]) was > 400 µg/mL each time. The MIC is > 400 µg/mL in assay [7] (setting [14]), 400 µg/mL (≈ 1360 µM) in assay [8] (setting [15]), 400 µg/mL (≈ 1360 µM) in assay [9] (setting [16]) and > 400 µg/mL in assay [10] (setting [18]).
Regarding `C[Si]1(C)OB(O)c2cc(F)c(S(=O)(=O)Nc3ccc(F)cc3)c(F)c21` [Compound 28, 5,7-Difluoro-N-(4-fluorophenyl)-3-hydroxy-1,1-dimethyl-1,3-dihydrobenzo[c][1,2,5]oxasilaborole-6-sulfonamide], the MIC in [1] (setting [11]), in assay [2] (setting [12]), in assay [3] (read-out: MIC), in assay [4] (read-out: MIC), in assay [5] (read-out: MIC) and in assay [6] (setting [13]) was > 400 µg/mL each time. For the same compound, the minimum inhibitory concentration (MIC) in [7] (setting [14]) came out at 50 µg/mL (≈ 129 µM); in [8] (setting [15]), 400 µg/mL (≈ 1030 µM); in assay [9] (setting [16]), 400 µg/mL (≈ 1030 µM); in [10] (setting [18]), 100 µg/mL (≈ 258 µM). The compound further registered an MBC in assay [7] (S. epidermidis ATCC 12228) of 100 µg/mL (≈ 258 µM).

Values taken from PMC11110727, “Exploiting thiol-functionalized benzosiloxaboroles for achieving diverse substitution patterns – synthesis, characterization and biological evaluation of promising antibacterial agents” (RSC Medicinal Chemistry, 2024).
